Values after ≈ are worked out from the molar mass of the structure shown. Read-outs that look alike come from different tables or passages of the source.
How the values were obtained:
Assay in all cases: in vitro antibacterial activity, standard agar dilution method
Format in all cases: cell-based
[1] = system: Pseudomonas stutzeri IFO 12695; conditions: Stutzerimonas stutzeri, IFO12695, aerobic, read-out: minimum inhibitory concentration (MIC)
[2] = system: Staphylococcus epidermidis NR 2942; conditions: NR2942, aerobic, read-out: minimum inhibitory concentration (MIC)
[3] = system: Staphylococcus epidermidis IFO 12993; conditions: IFO12993, aerobic, read-out: minimum inhibitory concentration (MIC)
[4] = system: Alcaligenes faecalis IFO 13111; conditions: IFO13111, aerobic, read-out: minimum inhibitory concentration (MIC)
[5] = system: Enterobacter aerogenes NR 2945; conditions: Klebsiella aerogenes, NR2945, aerobic, read-out: minimum inhibitory concentration (MIC)
[6] = system: Staphylococcus aureus Smith; conditions: Staphylococcus aureus Smith; aerobic; agar dilution; read-out: minimum inhibitory concentration (MIC)
[7] = system: Staphylococcus aureus NR 2855
[8] = system: Escherichia coli NIHJ JC-2; conditions: NIHJJC2, aerobic, read-out: minimum inhibitory concentration (MIC)
[9] = system: Citrobacter freundii IFO 12681; conditions: IFO12681, aerobic, read-out: minimum inhibitory concentration (MIC)
[10] = system: Salmonella typhimurium IFO 12529; conditions: Salmonella enterica, aerobic, read-out: minimum inhibitory concentration (MIC)
[11] = system: Proteus rettgeri ATCC 14505; conditions: Providencia rettgeri, ATCC14505, aerobic, read-out: minimum inhibitory concentration (MIC)
[12] = system: Enterobacter cloacae NR 2946; conditions: NR2946, aerobic, read-out: minimum inhibitory concentration (MIC)
[13] = system: Enterococcus faecalis NR 2943; conditions: NR2943, aerobic, read-out: minimum inhibitory concentration (MIC)
[14] = system: Proteus vulgaris OX19 ATCC 6898; conditions: ATCC6898, aerobic, read-out: minimum inhibitory concentration (MIC)
[15] = system: Bacillus subtilis PCI 219; conditions: PCI219, aerobic, read-out: minimum inhibitory concentration (MIC)
[16] = system: Serratia marcescens IFO 12648; conditions: IFO12648, aerobic, read-out: minimum inhibitory concentration (MIC)
Escherichia coli NR 2630 = conditions: NR2630; Escherichia coli NR 2630; aerobic; agar dilution; read-out: minimum inhibitory concentration (MIC)
[17] = system: Pseudomonas aeruginosa NR 2950; conditions: NR2950, aerobic, read-out: minimum inhibitory concentration (MIC)
[18] = system: Klebsiella pneumoniae FDA PCI 602; conditions: FDAPCI602, aerobic, read-out: minimum inhibitory concentration (MIC)
[19] = system: Staphylococcus aureus FDA 209P JC-1; conditions: FDA209P, read-out: minimum inhibitory concentration (MIC)
[20] = system: Bordetella bronchiseptica ATCC 4617; conditions: ATCC4617, aerobic, read-out: minimum inhibitory concentration (MIC)
[21] = system: Pseudomonas aeruginosa A3; conditions: aerobic, read-out: minimum inhibitory concentration (MIC)
[22] = NR2855, Staphylococcus aureus NR 2855, aerobic, agar dilution, read-out: minimum inhibitory concentration (MIC)
[23] = Staphylococcus aureus FDA 209P JC-1, aerobic, agar dilution

Row | MIC [1] [µg/mL] | MIC [2] [µg/mL] | MIC [3] [µg/mL] | MIC [4] [µg/mL] | MIC [5] [µg/mL] | MIC [6] [µg/mL] | MIC [7, 22] [µg/mL] | MIC [8] [µg/mL] | MIC [9] [µg/mL] | MIC [10] [µg/mL] | MIC [11] [µg/mL] | MIC [12] [µg/mL] | MIC [13] [µg/mL] | MIC [14] [µg/mL] | MIC [15] [µg/mL] | MIC [16] [µg/mL] | MIC [17] [µg/mL] | MIC [18] [µg/mL] | MIC [20] [µg/mL] | MIC [21] [µg/mL] | SMILES | other results
1 | 0.025 (≈ 0.0589 µM) | 0.39 (≈ 0.919 µM) | 0.39 (≈ 0.919 µM) | 0.78 (≈ 1.84 µM) | 0.025 (≈ 0.0589 µM) | 0.2 (≈ 0.471 µM) | 0.39 (≈ 0.919 µM) | 0.05 (≈ 0.118 µM) | 0.025 (≈ 0.0589 µM) | 0.025 (≈ 0.0589 µM) | 0.39 (≈ 0.919 µM) | 0.05 (≈ 0.118 µM) | 6.25 (≈ 14.7 µM) | 0.025 (≈ 0.0589 µM) | 0.025 (≈ 0.0589 µM) | 0.1 (≈ 0.236 µM) | 3.13 (≈ 7.37 µM) | 0.2 (≈ 0.471 µM) | 0.39 (≈ 0.919 µM) | 0.39 (≈ 0.919 µM) | CN1COc2c(N3CCNC(c4ccccc4)C3)c(F)cc3c(=O)c(C(=O)O)cn1c23 (stereo not drawn) [Example 8] | MIC (Escherichia coli NR 2630): 0.013 µg/mL (≈ 0.0306 µM); MIC [19, 23]: 0.39 µg/mL (≈ 0.919 µM)
2 | ≤ 0.0008 | 0.0065 (≈ 0.0186 µM) | 0.2 (≈ 0.573 µM) | 6.25 (≈ 17.9 µM) | 0.0065 (≈ 0.0186 µM) | 0.0033 (≈ 0.00945 µM) | 0.0065 (≈ 0.0186 µM) | 0.1 (≈ 0.286 µM) | 0.39 (≈ 1.12 µM) | 0.0033 (≈ 0.00945 µM) | 1.56 (≈ 4.47 µM) | 0.013 (≈ 0.0372 µM) | 12.5 (≈ 35.8 µM) | ≤ 0.0008 | ≤ 0.0008 | 0.78 (≈ 2.23 µM) | 12.5 (≈ 35.8 µM) | 3.13 (≈ 8.96 µM) | 1.56 (≈ 4.47 µM) | 6.25 (≈ 17.9 µM) | CN1COc2c(N3CCOCC3)c(F)cc3c(=O)c(C(=O)O)cn1c23 [Example 9, 9-Fluoro-3-methyl-10-morpholino-7-oxo-2,3-dihydro-7H-pyrido[3,2,1-ij]-1,3,4-benzoxadiazine-6-carboxylic acid] | MIC (Escherichia coli NR 2630): ≤ 0.0008 µg/mL; MIC [19, 23]: 0.2 µg/mL (≈ 0.573 µM)
3 | 0.1 (≈ 0.275 µM) | 0.05 (≈ 0.138 µM) | 0.1 (≈ 0.275 µM) | 3.13 (≈ 8.61 µM) | 0.2 (≈ 0.55 µM) | 0.025 (≈ 0.0688 µM) | 0.05 (≈ 0.138 µM) | 0.39 (≈ 1.07 µM) | 0.39 (≈ 1.07 µM) | 0.1 (≈ 0.275 µM) | 0.78 (≈ 2.15 µM) | 0.39 (≈ 1.07 µM) | 3.13 (≈ 8.61 µM) | 0.05 (≈ 0.138 µM) | ≤ 0.0008 | 0.39 (≈ 1.07 µM) | 6.25 (≈ 17.2 µM) | 0.78 (≈ 2.15 µM) | 0.78 (≈ 2.15 µM) | 1.56 (≈ 4.29 µM) | CN1COc2c(N3CCC(O)CC3)c(F)cc3c(=O)c(C(=O)O)cn1c23 [Example 13, 9-fluoro-10-(4-hydroxy-1-piperidyl)-3-methyl-7-oxo-2,3-dihydro-7H-pyrido[3,2,1-ij]-1,3,4-benzoxadiazine-6-carboxylic acid] | MIC [19, 23]: 0.1 µg/mL (≈ 0.275 µM)
4 | 0.05 (≈ 0.127 µM) | 0.78 (≈ 1.99 µM) | 0.78 (≈ 1.99 µM) | 3.13 (≈ 7.98 µM) | 0.05 (≈ 0.127 µM) | 0.39 (≈ 0.994 µM) | 0.78 (≈ 1.99 µM) | 0.1 (≈ 0.255 µM) | 0.05 (≈ 0.127 µM) | 0.05 (≈ 0.127 µM) | 0.78 (≈ 1.99 µM) | 0.1 (≈ 0.255 µM) | 6.25 (≈ 15.9 µM) | 0.025 (≈ 0.0637 µM) | 0.05 (≈ 0.127 µM) | 0.39 (≈ 0.994 µM) | 3.13 (≈ 7.98 µM) | 0.39 (≈ 0.994 µM) | 0.78 (≈ 1.99 µM) | 0.78 (≈ 1.99 µM) | CN1COc2c(N3CCN(CCO)CC3)c(F)cc3c(=O)c(C(=O)O)cn1c23 [Example 15] | MIC [19, 23]: 0.78 µg/mL (≈ 1.99 µM)

Row | SMILES | MIC [1] [µg/mL] | MIC [2] [µg/mL] | MIC [3] [µg/mL] | MIC [4] [µg/mL] | MIC [5] [µg/mL] | MIC [6] [µg/mL] | MIC [7, 22] [µg/mL] | MIC [8] [µg/mL] | MIC [9] [µg/mL] | MIC [10] [µg/mL] | MIC [11] [µg/mL] | MIC [12] [µg/mL] | MIC [13] [µg/mL] | MIC [14] [µg/mL] | MIC [15] [µg/mL] | MIC [16] [µg/mL] | MIC [17] [µg/mL] | MIC [18] [µg/mL] | MIC [20] [µg/mL] | MIC [21] [µg/mL] | other results
5 | CC(=O)NCC1CCN(c2c(F)cc3c(=O)c(C(=O)O)cn4c3c2OCN4C)C1 (stereo not drawn) [Example 19, 10-[3-(acetylaminomethyl)-1-pyrrolidinyl]-9-fluoro-3-methyl-7-oxo-2,3-dihydro-7H-pyrido[3,2,1-ij]-1,3,4-benzoxadiazine-6-carboxylic acid] | 0.39 (≈ 0.964 µM) | 0.39 (≈ 0.964 µM) | 0.39 (≈ 0.964 µM) | 6.25 (≈ 15.5 µM) | 1.56 (≈ 3.86 µM) | 0.2 (≈ 0.495 µM) |  | 1.56 (≈ 3.86 µM) | 1.56 (≈ 3.86 µM) | 1.56 (≈ 3.86 µM) | 3.13 (≈ 7.74 µM) | 1.56 (≈ 3.86 µM) | 6.25 (≈ 15.5 µM) | 0.39 (≈ 0.964 µM) | 0.05 (≈ 0.124 µM) | 3.13 (≈ 7.74 µM) | 25 (≈ 61.8 µM) | 6.25 (≈ 15.5 µM) | 6.25 (≈ 15.5 µM) | 6.25 (≈ 15.5 µM) | MIC ([7]; Staphylococcus aureus, NR2855, read-out: minimum inhibitory concentration (MIC)): 0.39 µg/mL (≈ 0.964 µM); MIC (Escherichia coli NR 2630): 0.39 µg/mL (≈ 0.964 µM); MIC ([19]; Staphylococcus aureus): 0.39 µg/mL (≈ 0.964 µM)

Source: patent US4864023A, “Pyrido(3,2,1-IJ)-1,3,4-benzoxadiazine derivatives” (priority 1988, dated 1989)
